Reference: article PMC10997755, “Discovery of a small-molecule inhibitor that traps Polθ on DNA and synergizes with PARP inhibitors” (Nature Communications, 2024)
Values after ≈ are worked out from the molar mass of the structure shown. Values joined by “and” are separate entries in the source; they are usually repeats but may differ in a detail not shown here. Equal values may be shown once. “Also recorded” adds a separate entry of the source.

Experiments:
[1] = system: Polα; assay: Primer extension by recombinant Pols (selectivity); assay type: biochemical
[2] = Clonogenic assay, OLA with or without RTX-161 (Fig. 2 a; cell line not given); assay type: cell-based; conditions: OLA 0, single experiments, relative to vehicle
[3] = system: DLD1 Parental cells; assay: Apoptosis assay (FITC active caspase-3); assay type: cell-based; design: FITC- AVG / FITC+ AVG: unit not given here; conditions: for FITC+ AVG / FITC- AVG: DLD1 Parental
Experimental: DLD1 BRCA2 -/-, DLD1 Parental cells were plated on six well plates and treated with RTX-161 1 day after plating. Medium was replaced every 2 days with RTX-161. Cells were harvested 6 days after plating for apoptosis assay using FITC active caspase-3 apoptosis kit (BD biosciences, catalog # 550480) according to manufacturer’s instructions and analyzed by FACS with Celesta (Becton Dickinson).

[4] = Colony survival, ola with or without RTX-161 (source data sheet Fig. 2 b; cell line not given); assay type: cell-based
[5] = biological target: T1, KpnI (Klebsiella pneumoniae, UniProt P25237); assay: KpnI cleavage control in the absence of Polθ-pol; assay type: biochemical; conditions: for cleavage %: KpnI; for inhibition of KpnI activity: absence of Polθ-pol; for % cleavage: compound 10 µM
T1 construct: purchased New England Biolabs
T1 sequence (P25237 1-218): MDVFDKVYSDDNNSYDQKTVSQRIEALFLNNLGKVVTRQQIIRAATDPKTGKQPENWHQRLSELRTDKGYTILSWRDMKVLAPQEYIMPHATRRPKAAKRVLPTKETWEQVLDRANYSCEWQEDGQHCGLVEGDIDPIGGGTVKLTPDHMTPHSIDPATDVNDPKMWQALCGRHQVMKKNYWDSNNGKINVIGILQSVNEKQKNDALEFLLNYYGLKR
Experimental: EcoRI and KpnI endonucleases assay: 25 nM 5’-^32P radiolabeled primer-template DNA Sc15-EcoRI (5’-^32P LM3-EcoRI/LM4-EcoRI) or Sc19-KpnI (5’-^32P LM11-Kpn/LM12-Kpn) in reaction buffer (25 mM Tris-HCl pH 7.5, 10 mM MgCl2, 10% glycerol, 0.1 mg/mL BSA, 0,01% igepal, 1 mM DTT) were incubated in the presence or in the absence of 50 nM Polθ-pol, 100 μM ddCTP, and 10 μM inhibitors, as indicated, for 5 min at room temperature. Next, 0.08 U/μL EcoRI or KpnI together with 500 nM “trapping” DNA Sc14 (RP559/RP702) were added and incubated for further 0–40 min at 30 °C as indicated. 10 nM PolθΔcen and FL-Polθ and 25 nM Sc15-EcoRI and Sc19-Kpn were probed with 0.04 U/μL EcoRI or KpnI (both from New England Biolabs) using the same conditions. Reactions were stopped by addition of formamide loading buffer with 50 mM EDTA, resolved in denaturing 20% urea PAAG and analyzed using Typhoon PhosphorImager (GE Amersham). Quantification was done in ImageQuant TL software. All quantified experiments were performed in triplicates and plotted as mean with ± s.d using GraphPad Prism 9 software.

[6] = system: Brca1^CC/CC;Polq^-/- cells; assay: Clonogenic assay; assay type: cell-based, mouse; conditions: for survival relative to 0 uM / survival relative to 0 uM, mean of the four experiments: cc POLQ KO; for survival relative to 0 uM: experiments 2023-04-07 and 2023-04-13; for survival relative to 0 uM, mean of the four experiments: last block without head (mean of 4)
Experimental: Cells were plated on six or twelve or twenty-four well plates. In six well plate, […], BRCA1 -/-, […]; In twelve well plate, […], BRCA1 -/-, PALB2 mut and 400 cells/ well of wildtype pair was plated; In twenty-four well plate, […], BRCA1 -/-, PALB2 mut and 300 cells/ well of wildtype pair was plated. […] The medium was replaced every 2 days until the colonies were ready for staining in 10–12 days. For staining: Medium was removed from plates, and cells were rinsed with PBS. Fixation was carried out with—Water: Ethanol: Acetic acid (5:4:1) for 30 min followed by staining of colonies with 0.5% crystal violet in Water: Ethanol (3:2) for 2 h at room temperature. The plates were rinsed with water and left for drying overnight at room temperature. Colonies were then counted and IC50 was calculated using results from 3 or more independent experiments. Response curves are shown as mean colony formation +/- S.E.M.

[7] = system: BRCA2-NULL cells; assay: Clonogenic assay (number of colonies counted); assay type: cell-based; conditions: three replicates
Excerpt: Supplement 41467_2024_46593_MOESM7_ESM.xlsx, sheet "Supplem 1 b" | column: BRCA2-NULL

[8] = Solubility (2% DMSO/PBS); assay type: physicochemical; conditions: aqueous buffer, kinetic from dmso stock
[9] = biological target: T2, recombinant human full-length Polθ (Fl-Polθ) (Homo sapiens, UniProt O75417); assay: Fl-Polθ DNA/DNA primer extension; assay type: biochemical; conditions: 0.15-12 µM, gel
T2 construct: recombinant human full-length Polθ (Fl-Polθ); made in house
T2 sequence (O75417 whole entry): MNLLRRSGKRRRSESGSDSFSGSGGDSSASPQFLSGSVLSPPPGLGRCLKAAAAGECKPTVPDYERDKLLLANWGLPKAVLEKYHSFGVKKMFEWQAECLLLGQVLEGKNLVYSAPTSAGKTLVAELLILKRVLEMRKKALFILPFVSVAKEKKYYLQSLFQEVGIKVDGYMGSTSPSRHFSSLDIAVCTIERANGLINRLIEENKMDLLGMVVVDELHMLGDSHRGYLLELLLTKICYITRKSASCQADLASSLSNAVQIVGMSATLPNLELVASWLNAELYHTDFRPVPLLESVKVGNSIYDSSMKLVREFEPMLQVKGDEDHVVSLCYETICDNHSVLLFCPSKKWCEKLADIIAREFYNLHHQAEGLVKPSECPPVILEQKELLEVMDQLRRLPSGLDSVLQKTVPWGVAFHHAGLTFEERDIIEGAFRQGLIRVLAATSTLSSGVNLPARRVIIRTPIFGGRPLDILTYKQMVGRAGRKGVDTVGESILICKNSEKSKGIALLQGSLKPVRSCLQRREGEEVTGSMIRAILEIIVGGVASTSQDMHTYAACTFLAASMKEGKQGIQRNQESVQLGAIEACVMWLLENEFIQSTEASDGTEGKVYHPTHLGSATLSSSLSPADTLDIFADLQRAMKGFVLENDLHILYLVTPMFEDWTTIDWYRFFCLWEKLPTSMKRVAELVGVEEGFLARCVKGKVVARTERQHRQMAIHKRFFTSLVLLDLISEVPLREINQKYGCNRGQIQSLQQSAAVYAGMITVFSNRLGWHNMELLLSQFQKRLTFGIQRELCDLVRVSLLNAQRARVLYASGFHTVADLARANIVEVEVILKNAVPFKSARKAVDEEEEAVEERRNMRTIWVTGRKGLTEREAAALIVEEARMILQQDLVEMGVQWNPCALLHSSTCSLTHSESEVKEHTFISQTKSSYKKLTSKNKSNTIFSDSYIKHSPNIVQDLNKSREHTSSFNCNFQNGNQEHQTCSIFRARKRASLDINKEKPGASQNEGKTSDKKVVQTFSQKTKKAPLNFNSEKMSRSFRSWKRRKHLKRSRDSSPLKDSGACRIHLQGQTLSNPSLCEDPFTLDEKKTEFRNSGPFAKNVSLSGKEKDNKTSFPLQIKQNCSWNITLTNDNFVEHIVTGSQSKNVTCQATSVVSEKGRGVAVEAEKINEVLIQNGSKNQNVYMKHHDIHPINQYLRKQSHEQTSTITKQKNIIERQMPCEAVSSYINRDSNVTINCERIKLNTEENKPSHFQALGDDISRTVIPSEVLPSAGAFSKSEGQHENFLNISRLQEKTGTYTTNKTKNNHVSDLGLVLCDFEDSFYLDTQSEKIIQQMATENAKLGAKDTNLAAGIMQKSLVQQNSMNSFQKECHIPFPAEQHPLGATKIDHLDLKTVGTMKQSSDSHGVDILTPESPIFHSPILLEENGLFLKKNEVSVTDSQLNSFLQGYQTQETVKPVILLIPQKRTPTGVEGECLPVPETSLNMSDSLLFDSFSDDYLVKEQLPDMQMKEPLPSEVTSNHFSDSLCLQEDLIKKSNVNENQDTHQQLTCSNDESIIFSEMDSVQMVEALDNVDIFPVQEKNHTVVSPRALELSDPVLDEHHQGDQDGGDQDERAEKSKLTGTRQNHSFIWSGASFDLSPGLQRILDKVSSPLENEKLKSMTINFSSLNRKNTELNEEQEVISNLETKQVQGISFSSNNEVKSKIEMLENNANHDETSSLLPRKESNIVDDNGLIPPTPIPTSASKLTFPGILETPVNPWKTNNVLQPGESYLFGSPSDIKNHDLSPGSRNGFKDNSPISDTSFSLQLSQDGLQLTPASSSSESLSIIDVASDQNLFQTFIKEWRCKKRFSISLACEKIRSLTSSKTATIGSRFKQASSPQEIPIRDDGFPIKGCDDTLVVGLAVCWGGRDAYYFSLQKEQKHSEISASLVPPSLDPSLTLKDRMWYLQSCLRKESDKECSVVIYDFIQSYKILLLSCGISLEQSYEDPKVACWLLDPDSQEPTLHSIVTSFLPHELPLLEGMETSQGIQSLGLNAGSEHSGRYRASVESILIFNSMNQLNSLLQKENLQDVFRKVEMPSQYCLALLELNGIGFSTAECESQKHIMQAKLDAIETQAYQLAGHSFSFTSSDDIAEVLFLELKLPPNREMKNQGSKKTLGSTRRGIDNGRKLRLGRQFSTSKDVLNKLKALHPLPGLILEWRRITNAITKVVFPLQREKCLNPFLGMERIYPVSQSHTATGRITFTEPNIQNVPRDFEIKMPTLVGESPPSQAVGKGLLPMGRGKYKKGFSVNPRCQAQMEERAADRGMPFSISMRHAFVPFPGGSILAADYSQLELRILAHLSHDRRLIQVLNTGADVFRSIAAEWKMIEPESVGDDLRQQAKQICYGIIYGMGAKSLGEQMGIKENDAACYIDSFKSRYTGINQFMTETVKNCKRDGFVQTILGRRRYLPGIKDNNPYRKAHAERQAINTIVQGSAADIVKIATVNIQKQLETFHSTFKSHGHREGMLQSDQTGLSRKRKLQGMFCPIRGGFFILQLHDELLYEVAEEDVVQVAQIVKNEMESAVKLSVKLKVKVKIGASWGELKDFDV

## CN(C(=O)Oc1c(N2CCN(CCO)C2=O)cc(C(F)(F)F)cc1C(F)(F)F)c1ccc(F)cc1 [RTx-161]
[1]; Pol Alpha
  % Full Extension: 84.67%
  % Inhibition Compared to Control: -1.20%
  % Relative Maximum Extension: 101.20%
[1]; selectivity panel, Pol named in Supplementary Fig. 1h
  inhibition of primer extension: no inhibition
[2]; RTX-161 0.5 micro M
  percent suvival: 63.3333% and 80.7018% and 61.1842%
[2]; RTX-161 1 micro M
  percent suvival: 55.8333% and 71.9298% and 46.0526%
[2]; RTX-161 2 micro M
  percent suvival: 43.3333% and 23.3918% and 22.3684%
[3]; 10 uM RTX-161
  % population FITC Caspase-3 Negative: 99%
[3]; 20 uM RTX-161
  % population FITC Caspase-3 Negative: 99%
[3]; 10 uM, left block of sheet
  FITC+ AVG: 1.067
  FITC- AVG: 98.9333
[3]; 10 uM, middle block of sheet
  FITC+ AVG: 2.067
  FITC- AVG: 98
[3]; 10 uM, right block of sheet
  FITC+ AVG: 2.033
  FITC- AVG: 97.9667
[3]; 20 uM, left block of sheet
  FITC+ AVG: 0.9333
  FITC- AVG: 99.0667
[3]; 20 uM, middle block of sheet
  FITC+ AVG: 1.467
  FITC- AVG: 98.6667
[3]; 20 uM, right block of sheet
  FITC+ AVG: 1.567
  FITC- AVG: 98.7667
[4]; RTX-161 2.5 micro M + ola 11.8 nano M
  percent suvival: 48.7273%
[4]; RTX-161 2.5 micro M + ola 26.60 nano M
  percent suvival: 30.5455%
[4]; RTX-161 2.5 micro M + ola 60.00 nano M
  percent suvival: 18.9091%
[4]; RTX-161 2.5 micro M, ola 0.00 nano M
  percent suvival: 75.7576% and 82.5581% and 83.6364%
[4]; RTX-161 5 micro M + ola 11.8 nano M
  percent suvival: 22.5455%
[4]; RTX-161 5 micro M + ola 26.60 nano M
  percent suvival: 14.9091%
[4]; RTX-161 5 micro M + ola 60.00 nano M
  percent suvival: 2.545%
[4]; RTX-161 5 micro M, ola 0.00 nano M
  percent suvival: 46.9697% and 43.6047% and 70.9091%
[4]; RTX-161 10 micro M + ola 11.8 nano M
  percent suvival: 9.818%
[4]; RTX-161 10 micro M + ola 26.60 nano M
  percent suvival: 5.091%
[4]; RTX-161 10 micro M + ola 60.00 nano M
  percent suvival: 0.7273%
[4]; RTX-161 10 micro M, ola 0.00 nano M
  percent suvival: 24.2424% and 34.8837% and 47.6364%
[5]; 3 min
  cleavage %: 20.2%
[5]; 6 min
  cleavage %: 33.3%
[5]
  inhibition of KpnI activity: resistant to inhibition
[5]; cleavage 3 min
  % cleavage: 20%
[5]; cleavage 6 min
  % cleavage: 33%
[6]; 150 cells/well, RTx-161 1.25 uM
  survival relative to 0 uM: 105.26% and 120.00%
[6]; 150 cells/well, RTx-161 2.5 uM
  survival relative to 0 uM: 73.68% and 115.00%
[6]; 150 cells/well, RTx-161 5 uM
  survival relative to 0 uM: 89.47% and 105.00%
[6]; 150 cells/well, RTx-161 10 uM
  survival relative to 0 uM: 94.74% and 95.00%
[6]; 150 cells/well, RTx-161 20 uM
  survival relative to 0 uM: 73.68% and 90.00%
[6]; 300 cells/well, RTx-161 1.25 uM
  survival relative to 0 uM: 106.67% and 94.44%
[6]; 300 cells/well, RTx-161 2.5 uM
  survival relative to 0 uM: 83.33%
[6]; 300 cells/well, RTx-161 5 uM
  survival relative to 0 uM: 83.33% and 86.11%
[6]; 300 cells/well, RTx-161 10 uM
  survival relative to 0 uM: 86.67% and 94.44%
[6]; 300 cells/well, RTx-161 20 uM
  survival relative to 0 uM: 80.00% and 83.33%
[6]; RTx-161 1.25 uM
  survival relative to 0 uM, mean of the four experiments: 106.59%
[6]; RTx-161 2.5 uM
  survival relative to 0 uM, mean of the four experiments: 88.84%
[6]; RTx-161 5 uM
  survival relative to 0 uM, mean of the four experiments: 90.98%
[6]; RTx-161 10 uM
  survival relative to 0 uM, mean of the four experiments: 92.71%
[6]; RTx-161 20 uM
  survival relative to 0 uM, mean of the four experiments: 81.75%
[6]; compared to Brca1^CC/CC cells
  sensitivity of Brca1^CC/CC;Polq^-/- cells: resistant

## CN1CCN(c2cc(C(F)(F)F)cc(C(F)(F)F)c2OC(=O)N(C)c2ccc(F)cc2)C1=O [RTx-152]
[5]; 3 min
  cleavage %: 21.3%
[5]; 6 min
  cleavage %: 35.8%
[5]
  inhibition of KpnI activity: resistant to inhibition
[5]; cleavage 3 min
  % cleavage: 21%
[5]; cleavage 6 min
  % cleavage: 36%

## CN(C(=O)Oc1ccc(C(F)(F)F)cc1C(F)(F)F)c1ccc(F)cc1 [MC160385]
[7]; MC160385 2.5 μM
  number of olonies counted: 67 and 60 and 64
[7]; MC160385 5 μM
  number of olonies counted: 56 and 64 and 62
[7]; MC160385 10 μM
  number of olonies counted: 57 and 62 and 60
[7]; MC160385 20 μM
  number of olonies counted: 59 and 56 and 58
[8]
  solubility: 56 µM (≈ 21.3 µg/mL)
[9]
  inhibition of Fl-Polθ DNA synthesis activity: inhibits; also recorded: inhibition
